Source: patent US9492471B2, “Methods of treating a disease or disorder associated with Bruton'S Tyrosine Kinase” (Celgene Avilomics Research, Inc., priority 2013, dated 2016)
Read-outs that look alike come from different tables or passages of the source.

Tests used:
Assay in all cases: HotSpot kinase profiling
Assay type in all cases: biochemical
ALK4/ACVR1B = target: T1, ALK4/ACVR1B (Homo sapiens, UniProt P36896)
T1 construct: purchased Reaction Biology Corp
T1 sequence (P36896 24-505): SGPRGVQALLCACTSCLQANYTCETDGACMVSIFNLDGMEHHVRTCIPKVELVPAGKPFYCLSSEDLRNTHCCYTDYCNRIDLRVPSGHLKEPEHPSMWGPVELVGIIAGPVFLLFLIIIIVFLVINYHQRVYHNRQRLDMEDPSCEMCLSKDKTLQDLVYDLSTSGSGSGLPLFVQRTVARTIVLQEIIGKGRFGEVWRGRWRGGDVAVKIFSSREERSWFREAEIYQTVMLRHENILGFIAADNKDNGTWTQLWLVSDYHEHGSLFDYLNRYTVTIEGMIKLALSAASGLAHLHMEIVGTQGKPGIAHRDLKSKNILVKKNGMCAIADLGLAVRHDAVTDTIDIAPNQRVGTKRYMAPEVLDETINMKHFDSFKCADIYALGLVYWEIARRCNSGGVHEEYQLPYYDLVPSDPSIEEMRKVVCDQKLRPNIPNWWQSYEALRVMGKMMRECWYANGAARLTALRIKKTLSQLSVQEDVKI
Method in brief: (§1)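 Radio-isotope P81 filtration format. Substrate + required cofactors in reaction buffer, kinase added, 2 h RT. Stop, wash with 0.1% phosphoric acid, detect. % inhibition vs DMSO; mean of duplicates where repeated.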

EPHA2 = target: T2, EPHA2 (Homo sapiens, UniProt P29317)
T2 construct: purchased Reaction Biology Corp
T2 sequence (P29317 24-976): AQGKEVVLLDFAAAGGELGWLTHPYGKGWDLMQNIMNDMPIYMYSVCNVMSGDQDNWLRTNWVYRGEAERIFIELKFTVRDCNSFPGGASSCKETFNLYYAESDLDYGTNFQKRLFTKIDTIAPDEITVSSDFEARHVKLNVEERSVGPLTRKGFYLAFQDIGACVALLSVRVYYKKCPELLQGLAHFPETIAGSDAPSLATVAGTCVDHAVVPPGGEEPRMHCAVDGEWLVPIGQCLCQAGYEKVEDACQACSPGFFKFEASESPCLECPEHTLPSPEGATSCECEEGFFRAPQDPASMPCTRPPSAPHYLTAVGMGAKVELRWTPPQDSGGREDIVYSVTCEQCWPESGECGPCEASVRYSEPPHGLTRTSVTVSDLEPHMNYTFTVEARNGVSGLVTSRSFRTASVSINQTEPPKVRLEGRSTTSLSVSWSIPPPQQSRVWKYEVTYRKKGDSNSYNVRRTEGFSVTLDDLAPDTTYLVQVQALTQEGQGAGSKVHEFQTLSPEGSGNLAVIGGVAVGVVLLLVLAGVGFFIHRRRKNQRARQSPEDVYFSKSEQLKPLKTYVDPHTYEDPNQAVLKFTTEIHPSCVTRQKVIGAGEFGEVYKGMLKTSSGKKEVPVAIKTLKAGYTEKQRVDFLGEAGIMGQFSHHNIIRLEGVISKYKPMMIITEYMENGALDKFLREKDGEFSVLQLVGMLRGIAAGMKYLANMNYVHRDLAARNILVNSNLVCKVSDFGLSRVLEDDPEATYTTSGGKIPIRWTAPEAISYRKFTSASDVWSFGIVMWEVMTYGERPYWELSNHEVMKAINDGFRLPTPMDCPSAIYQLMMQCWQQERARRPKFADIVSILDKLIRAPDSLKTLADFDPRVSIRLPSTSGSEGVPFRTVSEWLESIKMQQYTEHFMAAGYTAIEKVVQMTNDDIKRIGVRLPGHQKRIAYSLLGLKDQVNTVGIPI
Method in brief: as §1

LOK/STK10 = target: T3, LOK/STK10 (Homo sapiens, UniProt O94804)
T3 construct: purchased Reaction Biology Corp
T3 sequence (O94804 whole entry): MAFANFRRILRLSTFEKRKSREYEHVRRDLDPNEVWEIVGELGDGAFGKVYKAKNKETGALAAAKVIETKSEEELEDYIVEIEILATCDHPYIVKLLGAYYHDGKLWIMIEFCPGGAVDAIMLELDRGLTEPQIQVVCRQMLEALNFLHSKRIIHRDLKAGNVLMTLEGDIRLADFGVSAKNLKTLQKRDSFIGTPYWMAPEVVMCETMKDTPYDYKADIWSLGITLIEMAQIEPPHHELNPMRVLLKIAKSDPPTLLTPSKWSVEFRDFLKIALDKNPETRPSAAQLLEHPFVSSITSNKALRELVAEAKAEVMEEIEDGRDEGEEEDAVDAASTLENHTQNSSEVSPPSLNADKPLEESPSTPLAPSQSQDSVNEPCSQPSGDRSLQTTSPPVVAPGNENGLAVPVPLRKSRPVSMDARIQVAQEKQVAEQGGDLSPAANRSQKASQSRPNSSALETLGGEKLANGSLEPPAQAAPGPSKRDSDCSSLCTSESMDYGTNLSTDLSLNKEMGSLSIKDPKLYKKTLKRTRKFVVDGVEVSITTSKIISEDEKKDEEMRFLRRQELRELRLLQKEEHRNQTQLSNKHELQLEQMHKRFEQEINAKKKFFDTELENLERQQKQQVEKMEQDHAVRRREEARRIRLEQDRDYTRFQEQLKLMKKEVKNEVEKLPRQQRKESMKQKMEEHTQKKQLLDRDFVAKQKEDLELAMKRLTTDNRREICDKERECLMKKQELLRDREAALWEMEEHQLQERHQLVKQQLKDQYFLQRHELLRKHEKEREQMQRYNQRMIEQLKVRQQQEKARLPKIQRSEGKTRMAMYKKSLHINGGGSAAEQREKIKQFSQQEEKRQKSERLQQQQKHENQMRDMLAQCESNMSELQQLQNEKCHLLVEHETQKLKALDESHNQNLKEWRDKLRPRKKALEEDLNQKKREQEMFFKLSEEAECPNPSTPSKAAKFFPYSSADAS
Method in brief: as §1

MRCKb/CDC42BPB = target: T4, MRCKb/CDC42BPB (Homo sapiens, UniProt Q9Y5S2)
T4 construct: purchased Reaction Biology Corp
T4 sequence (Q9Y5S2 whole entry): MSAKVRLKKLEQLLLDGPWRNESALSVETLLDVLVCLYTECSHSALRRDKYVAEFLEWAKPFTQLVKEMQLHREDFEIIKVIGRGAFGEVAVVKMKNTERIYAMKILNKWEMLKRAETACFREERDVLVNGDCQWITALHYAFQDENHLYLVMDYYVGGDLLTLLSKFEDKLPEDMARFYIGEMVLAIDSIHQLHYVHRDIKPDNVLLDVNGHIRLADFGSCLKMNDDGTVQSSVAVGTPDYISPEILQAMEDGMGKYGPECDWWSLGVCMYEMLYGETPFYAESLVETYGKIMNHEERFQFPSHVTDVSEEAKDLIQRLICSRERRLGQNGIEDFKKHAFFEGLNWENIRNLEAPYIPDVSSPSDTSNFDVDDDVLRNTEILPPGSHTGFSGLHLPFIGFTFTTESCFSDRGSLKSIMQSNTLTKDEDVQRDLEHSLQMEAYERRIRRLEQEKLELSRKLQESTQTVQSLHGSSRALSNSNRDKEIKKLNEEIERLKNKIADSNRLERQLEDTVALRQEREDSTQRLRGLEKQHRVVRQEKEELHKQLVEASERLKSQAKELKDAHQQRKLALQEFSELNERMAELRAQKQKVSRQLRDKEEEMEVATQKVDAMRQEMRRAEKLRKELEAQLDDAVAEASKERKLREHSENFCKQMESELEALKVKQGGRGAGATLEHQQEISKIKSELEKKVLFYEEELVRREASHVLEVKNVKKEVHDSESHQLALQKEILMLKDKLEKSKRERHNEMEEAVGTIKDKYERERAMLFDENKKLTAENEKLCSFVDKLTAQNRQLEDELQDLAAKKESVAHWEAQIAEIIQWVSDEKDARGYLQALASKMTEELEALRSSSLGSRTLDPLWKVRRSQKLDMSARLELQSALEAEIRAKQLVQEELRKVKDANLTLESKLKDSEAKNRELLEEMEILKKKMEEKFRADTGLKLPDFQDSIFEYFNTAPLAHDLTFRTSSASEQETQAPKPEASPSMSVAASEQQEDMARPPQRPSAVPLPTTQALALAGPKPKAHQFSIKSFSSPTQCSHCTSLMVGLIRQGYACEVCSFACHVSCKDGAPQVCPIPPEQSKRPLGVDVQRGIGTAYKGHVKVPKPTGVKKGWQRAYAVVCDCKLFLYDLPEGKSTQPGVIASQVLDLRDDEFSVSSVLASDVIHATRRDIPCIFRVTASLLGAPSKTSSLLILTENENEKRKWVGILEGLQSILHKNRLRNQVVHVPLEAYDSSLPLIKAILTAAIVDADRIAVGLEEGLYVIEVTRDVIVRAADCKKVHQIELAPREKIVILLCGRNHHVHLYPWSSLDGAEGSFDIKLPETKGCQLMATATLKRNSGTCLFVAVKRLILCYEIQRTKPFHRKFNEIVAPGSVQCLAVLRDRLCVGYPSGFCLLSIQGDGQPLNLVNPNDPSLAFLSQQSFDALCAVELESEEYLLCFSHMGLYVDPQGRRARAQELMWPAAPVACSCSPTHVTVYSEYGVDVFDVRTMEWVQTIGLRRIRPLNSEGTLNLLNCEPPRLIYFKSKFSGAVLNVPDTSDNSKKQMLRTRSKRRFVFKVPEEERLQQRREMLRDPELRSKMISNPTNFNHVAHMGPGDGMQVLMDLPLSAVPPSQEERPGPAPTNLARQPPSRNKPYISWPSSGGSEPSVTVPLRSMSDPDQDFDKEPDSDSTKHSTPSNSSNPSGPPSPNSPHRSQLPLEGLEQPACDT
Method in brief: as §1

PKCeta = target: T5, PKCeta (Homo sapiens, UniProt P24723)
T5 construct: purchased Reaction Biology Corp
T5 sequence (P24723 whole entry): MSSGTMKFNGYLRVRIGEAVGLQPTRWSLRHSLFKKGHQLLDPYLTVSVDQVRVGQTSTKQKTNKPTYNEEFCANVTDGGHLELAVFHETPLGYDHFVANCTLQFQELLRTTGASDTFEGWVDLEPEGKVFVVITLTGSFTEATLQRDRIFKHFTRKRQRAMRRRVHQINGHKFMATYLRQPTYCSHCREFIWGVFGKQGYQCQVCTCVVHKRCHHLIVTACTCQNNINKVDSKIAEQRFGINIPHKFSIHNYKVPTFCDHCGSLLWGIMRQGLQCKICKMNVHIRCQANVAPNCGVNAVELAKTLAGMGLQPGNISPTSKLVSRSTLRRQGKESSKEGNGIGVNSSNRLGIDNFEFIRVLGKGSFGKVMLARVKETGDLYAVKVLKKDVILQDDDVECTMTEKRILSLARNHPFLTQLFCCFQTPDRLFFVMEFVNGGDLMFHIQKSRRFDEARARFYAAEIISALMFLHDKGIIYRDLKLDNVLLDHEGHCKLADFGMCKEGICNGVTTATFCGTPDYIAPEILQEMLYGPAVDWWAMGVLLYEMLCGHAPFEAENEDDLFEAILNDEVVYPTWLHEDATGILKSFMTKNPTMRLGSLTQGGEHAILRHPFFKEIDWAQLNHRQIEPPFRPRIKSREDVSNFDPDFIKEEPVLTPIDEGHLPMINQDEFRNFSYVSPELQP
Method in brief: as §1

TAOK1 = target: T6, TAOK1 (Homo sapiens, UniProt Q7L7X3)
T6 construct: purchased Reaction Biology Corp
T6 sequence (Q7L7X3 1-1001): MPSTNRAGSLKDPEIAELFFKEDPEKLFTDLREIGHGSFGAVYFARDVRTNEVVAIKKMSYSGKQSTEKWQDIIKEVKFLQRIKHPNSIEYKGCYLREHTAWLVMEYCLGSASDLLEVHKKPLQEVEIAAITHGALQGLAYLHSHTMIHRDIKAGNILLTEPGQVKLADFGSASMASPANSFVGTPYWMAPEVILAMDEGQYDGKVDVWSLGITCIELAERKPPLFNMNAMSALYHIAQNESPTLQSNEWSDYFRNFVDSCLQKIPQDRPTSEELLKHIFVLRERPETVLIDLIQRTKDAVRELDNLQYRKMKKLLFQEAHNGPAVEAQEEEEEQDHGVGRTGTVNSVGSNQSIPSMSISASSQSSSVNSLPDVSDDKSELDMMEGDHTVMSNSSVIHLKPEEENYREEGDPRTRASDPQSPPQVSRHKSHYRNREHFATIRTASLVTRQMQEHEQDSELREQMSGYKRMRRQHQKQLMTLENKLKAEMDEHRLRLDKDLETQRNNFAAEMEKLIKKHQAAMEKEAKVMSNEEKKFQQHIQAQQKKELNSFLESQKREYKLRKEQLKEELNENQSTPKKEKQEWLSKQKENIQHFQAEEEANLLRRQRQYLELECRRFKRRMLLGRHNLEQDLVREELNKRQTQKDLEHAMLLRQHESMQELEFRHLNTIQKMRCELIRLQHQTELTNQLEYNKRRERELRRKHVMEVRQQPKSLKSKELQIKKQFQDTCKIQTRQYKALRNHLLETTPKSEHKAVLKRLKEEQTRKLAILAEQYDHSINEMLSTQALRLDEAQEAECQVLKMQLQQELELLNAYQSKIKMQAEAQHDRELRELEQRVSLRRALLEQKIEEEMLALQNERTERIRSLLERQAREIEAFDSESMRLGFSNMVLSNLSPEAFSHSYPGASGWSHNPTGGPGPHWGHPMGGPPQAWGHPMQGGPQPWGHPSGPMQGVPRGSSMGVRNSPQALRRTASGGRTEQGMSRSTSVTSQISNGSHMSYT
Method in brief: as §1

TRKB = target: T7, TRKB (Homo sapiens, UniProt Q16620)
T7 construct: purchased Reaction Biology Corp
T7 sequence (Q16620 32-822): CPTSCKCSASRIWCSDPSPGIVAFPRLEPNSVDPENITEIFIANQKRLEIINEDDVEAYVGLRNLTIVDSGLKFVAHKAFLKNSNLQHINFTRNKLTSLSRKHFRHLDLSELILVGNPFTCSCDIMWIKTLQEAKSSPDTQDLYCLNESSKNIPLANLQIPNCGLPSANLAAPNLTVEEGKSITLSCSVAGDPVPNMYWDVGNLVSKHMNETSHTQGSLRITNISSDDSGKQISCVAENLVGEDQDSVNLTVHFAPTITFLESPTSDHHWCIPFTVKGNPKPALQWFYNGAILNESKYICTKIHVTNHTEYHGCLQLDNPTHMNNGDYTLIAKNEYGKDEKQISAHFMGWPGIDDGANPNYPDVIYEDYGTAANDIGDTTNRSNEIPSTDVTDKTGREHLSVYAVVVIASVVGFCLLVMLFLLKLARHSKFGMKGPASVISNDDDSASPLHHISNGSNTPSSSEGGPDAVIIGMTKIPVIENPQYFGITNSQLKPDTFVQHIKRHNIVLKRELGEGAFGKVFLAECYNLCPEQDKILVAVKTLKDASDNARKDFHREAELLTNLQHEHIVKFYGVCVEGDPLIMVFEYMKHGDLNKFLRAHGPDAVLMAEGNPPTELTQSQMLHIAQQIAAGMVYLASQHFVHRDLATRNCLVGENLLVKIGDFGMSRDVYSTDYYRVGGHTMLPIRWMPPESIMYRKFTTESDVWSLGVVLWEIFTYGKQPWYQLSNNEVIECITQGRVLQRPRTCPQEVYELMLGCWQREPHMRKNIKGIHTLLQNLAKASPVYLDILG
Method in brief: as §1

[1] = read-out: % Enzyme Activity (relative to DMSO controls) Run 1
[2] = read-out: % Enzyme Activity (relative to DMSO controls) Run 2

C=CC(=O)Nc1cccc(Nc2nc(Nc3ccc(OCCOC)c(F)c3)ncc2F)c1 [Compound 2]
inhibition at 3 µM (ALK4/ACVR1B): -42.2% | remaining activity at 3 µM (ALK4/ACVR1B; [1]): 141% | remaining activity at 3 µM (ALK4/ACVR1B; [2]): 144% | inhibition at 3 µM (EPHA2): 15.8% | remaining activity at 3 µM (EPHA2; [1]): 84.2% | remaining activity at 3 µM (EPHA2; [2]): 84.1% | inhibition at 3 µM (LOK/STK10): 56.9% | remaining activity at 3 µM (LOK/STK10; [1]): 43.1% | remaining activity at 3 µM (LOK/STK10; [2]): 43% | inhibition at 3 µM (MRCKb/CDC42BPB): -6.12% | remaining activity at 3 µM (MRCKb/CDC42BPB; [1]): 107% | remaining activity at 3 µM (MRCKb/CDC42BPB; [2]): 105% | inhibition at 3 µM (PKCeta): -12.8% | remaining activity at 3 µM (PKCeta; [1]): 109% | remaining activity at 3 µM (PKCeta; [2]): 117% | inhibition at 3 µM (TAOK1): 1.63% | remaining activity at 3 µM (TAOK1; [1]): 100% | remaining activity at 3 µM (TAOK1; [2]): 96.2% | inhibition at 3 µM (TRKB): 14.2% | remaining activity at 3 µM (TRKB; [1]): 86.5% | remaining activity at 3 µM (TRKB; [2]): 85%
